Results: patent publication US20110142837A1, “Method Of Treating Acute Respiratory Distress Syndrome” (TRUSTEES OF THE UNIVERSITY OF PENNSYLVANIA, priority 2007, published 2011)

What was measured:
[1] = tested on: neutrophils from healthy individuals incubated with BAL fluid from ARDS patients; assay: mPT of supernatants from healthy neutrophils stimulated with ARDS BAL fluid, inhibition studies; assay type: cell-based, human
Protocol: Isolation of peripheral blood neutrophils: Circulating leukocytes from all ARDS patients and from 4 healthy donors were immediately isolated from EDTA-treated peripheral blood. Peripheral blood neutrophils were separated by Histopaque-double gradient density centrifugation. The absolute number of neutrophils was adjusted to 2-3×10^6 cells/ml in PBS. Approximately one-quarter (˜6-8×10^5 cells in 250 μl PBS) was used for each stimulation or inhibition reaction. Cell purity (>98%), viability by trypan blue exclusion (>97%), and platelet contamination (<2 platelets/100 neutrophils) were assessed in all experiments.
Modified prothrombin time (mPT) assay: The supernatants from neutrophils that had been incubated with BALF supernatants or/and various agents were isolated by centrifugation at 1000×g for 10 minutes; the supernatants from these neutrophil preparations were checked a second time to confirm the absence of contaminating cells or platelets. The coagulation activities (TF/FVIIa binding activity) of the cell supernatants were determined using a modified prothrombin time (mPT) assay as previously described (18). After performing the “classic” prothrombin time (PT) test (100 microliter (μl) platelet poor plasma (PPP) plus 200 μl thromboplastin ISI 1.9 (Instrumentation Laboratory, Milan, Italy), the modified PT analysis was carried out. Namely, 120 μl of cell or BALF supernatant and 80 μl thromboplastin were added to 100 μl of PPP to measure the changes in PT. As a control for modified PT assays, 120 μl of PBS was used instead of cell supernatant, and the in vitro clotting time usually ranged from 31 seconds to 34 seconds.
(§1) Stimulation and inhibition studies: Neutrophils from healthy individuals were incubated for 120 minutes at 37° C. in PBS containing various stimulatory or inhibitory substances, in a total volume of 250 μl. Neutrophils were incubated with: 1) serum (50 μl) from healthy individuals; 2) serum (50 μl) from patients suffering from ARDS; 3) BAL fluid (40 μl) from ARDS patients; 4) BAL fluid from ARDS patients, together with normal neutrophils that had been pretreated for 30 minutes with the C5aR antagonist AcF-[OpdChaWR] (5 μM final concentration); 5) BAL fluid from patients with ARDS, together with normal neutrophils that had been preincubated for 30 minutes with the C3aR antagonist […], 10 μM final concentration); 6) BAL fluid from ARDS patients pretreated for 30 minutes with Humira® (Abbot Laboratories, Abbott Park, Ill.; anti-TNF monoclonal antibody, 0.4 μg/μl final concentration), together with normal neutrophils; or 7) BAL fluid from ARDS patients, together with normal neutrophils pretreated for 30 minutes with anti-IL-6 Mab (10 μg/ml final concentration).
In the complement cascade, cleavage of C3 produces C3a and C3b. C3b contributes to the formation of enzymatic assemblies that in turn catalyze the formation of C5a from C5. The following experiment was designed to test whether inhibition of C3 cleavage, which reduces the amount of C5a formed, is effective in reducing TF expression. Modified PT assays were carried out essentially as described above using neutrophils obtained from healthy individuals and incubating them with BAL fluid from patients with ARDS. The BAL fluid from the seven patients was tested individually.

[2] = target: C5a receptor (C5aR) on neutrophils from healthy individuals (human) (UniProt P21730); assay: cell-based or functional assay
[3] = tested on: TF expression in neutrophils; assay: TF expression in BALF-stimulated healthy neutrophils (APAAP immunostaining, FACS, western blot); assay type: cell-based, human; conditions: FIGS. 4B, C and D; healthy neutrophils + 40 μl ARDS BALF
Protocol: as §1
Alkaline-Phosphatase anti-Alkaline-Phosphatase (APAAP) Immunostaining: Smears of cells (BALF pellet and peripheral blood-isolated neutrophils, before and after stimulation and/or inhibition studies) were stored at −20° C. prior to use. […]

[4] = target: TNF-alpha in BALF from ARDS patients (human) (UniProt P01375); assay: cell-based or functional assay
UniProt P01375, sequence (P01375 77-233 limits assumed): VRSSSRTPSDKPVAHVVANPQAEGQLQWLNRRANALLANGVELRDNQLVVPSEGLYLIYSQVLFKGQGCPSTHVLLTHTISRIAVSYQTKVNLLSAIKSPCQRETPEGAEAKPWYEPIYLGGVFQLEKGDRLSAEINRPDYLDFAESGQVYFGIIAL

UniProt P21730, sequence (P21730 whole entry): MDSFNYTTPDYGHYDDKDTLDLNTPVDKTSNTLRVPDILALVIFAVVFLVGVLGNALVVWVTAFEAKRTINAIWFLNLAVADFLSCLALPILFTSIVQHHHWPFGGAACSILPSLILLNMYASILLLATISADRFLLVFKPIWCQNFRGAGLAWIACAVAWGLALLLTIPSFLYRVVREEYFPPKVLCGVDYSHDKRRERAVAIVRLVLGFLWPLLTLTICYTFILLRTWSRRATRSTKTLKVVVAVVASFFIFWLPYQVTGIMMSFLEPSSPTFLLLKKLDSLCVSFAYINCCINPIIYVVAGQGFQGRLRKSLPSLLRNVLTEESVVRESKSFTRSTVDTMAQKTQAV

How did the “influence on mPT values of supernatants from BALF-stimulated neutrophils” value ([1]; SB-290152 10 μM, anti-IL-6 Mab 10 μg/ml, 30 minutes pretreatment) turn out when NC(N)=NCCC[C@H](NC(=O)COCC(c1ccccc1)c1ccccc1)C(=O)O [SB-290152] was run?
The value was “did not influence the mPT values”.

For CC[C@H](C)[C@H](N)C(=O)N[C@H]1CSSC[C@@H](C(=O)N[C@H](C(N)=O)[C@@H](C)O)NC(=O)[C@H](CCCN=C(N)N)NC(=O)[C@H](Cc2cnc[nH]2)NC(=O)[C@H](Cc2cnc[nH]2)NC(=O)CNC(=O)[C@H](Cc2c[nH]c3ccccc23)NC(=O)[C@H](CC(=O)O)NC(=O)[C@H](CCC(N)=O)NC(=O)[C@H](C(C)C)NC(=O)[C@H](C(C)C)NC1=O [compstatin, Ile-Cys-Val-Val-Gln-Asp-Trp-Gly-His-His-Arg-Cys-Thr], which “mPT, healthy neutrophils + BALF incubated with compstatin, group b” value ([1]; 3 ARDS cases (group b), FIG. 6, column 5, P=ns compared to BALF alone 24.13±1.31) is on record?
Its value is 24.57±0.55.

And the “mPT, healthy neutrophils + BALF preincubated with compstatin, group a” value ([1]; 4 ARDS cases (group a), FIG. 6, column 4, p<0.001 compared to BALF alone 24.13±1.31, PBS 32.11±0.58)?
Its value is 27.98±0.71.

What about the “effect on procoagulant activity in mPT, Comp b” value ([1]; group of 3 ARDS patients, FIG. 6) of the same molecule?
Its value is “did not significantly reduce the procoagulant activity”.

What about the “effect on procoagulant activity in mPT, Comp a” value ([1]; group of 4 ARDS patients, FIG. 6) of the same molecule?
Its value is “reduced the procoagulant activity”.

With “AcF-[OPdChaWR] (acetyl-Phe-[Orn-Pro-D-cyclohexylalanine-Trp-Arg]; PMX-53) (peptide)” as the molecule, how does the modified prothrombin time (mPT) of supernatants from BALF-stimulated healthy neutrophils pretreated with C5aR antagonist [2] read?
The modified prothrombin time (mPT) of supernatants from BALF-stimulated healthy neutrophils pretreated with C5aR antagonist was 31.9 s.

What does the source list for “Acetyl-Phe-[Orn-Pro-D-cyclohexylalanine-Trp-Arg] [PMX-53]”?
TF expression in BALF-stimulated neutrophils after blockade (immunohistochemical, flow cytometry, western blot) [3]: loss of TF expression; mPT of supernatants from BALF-stimulated healthy neutrophils after blockade of signaling ([1]; 40 μl ARDS BALF, 30 minutes pretreatment, C5aR antagonist 5 μM, Humira 0.4 μg/μl, BALF without inhibitor 24.13±1.31 sec, ARDS serum control 29.69±1.64 sec, p<0.001, FIG. 4A): 31.91 ± 0.64 s

For “Humira (Abbott Laboratories; anti-TNF monoclonal antibody)”, which modified prothrombin time (mPT) of supernatants from healthy neutrophils stimulated with BALF pretreated with anti-TNF antibody [4] is on record?
Its modified prothrombin time (mPT) of supernatants from healthy neutrophils stimulated with BALF pretreated with anti-TNF antibody is 30.4 s.
